Activity data for three compounds are collected here from ChEMBL document CHEMBL2417523, “One-pot microwave assisted synthesis of new 2-alkoxycarbonylmethylene-4-oxo-1,5-benzo-, naphtho-, and pyridodiazepines and assessment of their cytogenetic activity” (Eur J Med Chem, 2013).

Data set [1] in a line: Cytogenetic activity against human lymphocytes assessed as cytostatic activity measured as proliferative rate index at 10 uM after 72 hrs by fluorescence/Geimsa method. Format: cell-based. The note with it: lymphocyte.
Data set [2] concerns Lymphocyte. The data set is described as follows: Cytoprotective activity against human lymphocytes assessed as reduction in sister chromatid exchange frequency at 10 uM after 72 hrs by fluorescence/Geimsa method. Type of data set: functional, cell-based.
Data set [3] deals with Lymphocyte. The data set is described as follows: Cytoprotective activity against human lymphocytes assessed as reduction in sister chromatid exchange frequency after 72 hrs by fluorescence/Geimsa method. Type of data set: functional, cell-based.

Activity calls are given as the source filed them. The calls are words filed in the database; no cut-off is given here.

Turning to `COC(=O)/C=C1/CC(=O)Nc2cc(Cl)ccc2N1`, the Activity result in data set [1] is “Toxic”; with Lymphocyte [3], “Dose-dependent effect”. Also, the outcome in the data set on Lymphocyte [2] was Active. As for `COC(=O)/C=C1/CC(=O)Nc2ccccc2N1`, the Activity result with Lymphocyte [3] is “Dose-dependent effect”. Same read-out and setting: the value for `COC(=O)/C=C1/CC(=O)Nc2cc(C)c(C)cc2N1` was “Dose-dependent effect”.
